Measurements taken from ChEMBL document CHEMBL1148456, “Structure-based design and synthesis of non-nucleoside, potent, and orally bioavailable adenosine deaminase inhibitors” (J Med Chem, 2004).
≈ marks a conversion by molar mass, not a printed value.

Key:
Mus musculus [1] = assay: Antitumor activity after administration (p.o.) with U937 cells in mice at a dose of 10 mg/kg; assay type: functional, U-937; conditions: route oral
[2] = AUC in rat after po administration at a dose of 10 mg/kg; assay type: ADME, organism-based; set-up: dose 10 mg/kg, route oral; conditions: plasma, read-out: AUC 0-24h
[3] = In vitro clearance in human liver microsomes; assay type: ADME, Microsome; conditions: read-out: Clearance
[4] = (§1) In vitro clearance in rat liver microsomes; assay type: ADME, Microsome; conditions: read-out: Clearance
[5] = Oral bioavailability in rat (dose 10 mg/kg); assay type: ADME, organism-based; conditions: in vivo
[6] = Half-life in rat after po administration at a dose of 10 mg/kg; assay type: ADME, organism-based; set-up: dose 10 mg/kg, route oral; conditions: in vivo
[7] = Oral bioavailability in dog (dose 10 mg/kg); assay type: ADME, organism-based, Canis lupus familiaris; conditions: in vivo
[8] = biological target: T1, Adenosine deaminase (Homo sapiens) (UniProt P00813); conditions: Rattus norvegicus
T1 sequence (whole entry): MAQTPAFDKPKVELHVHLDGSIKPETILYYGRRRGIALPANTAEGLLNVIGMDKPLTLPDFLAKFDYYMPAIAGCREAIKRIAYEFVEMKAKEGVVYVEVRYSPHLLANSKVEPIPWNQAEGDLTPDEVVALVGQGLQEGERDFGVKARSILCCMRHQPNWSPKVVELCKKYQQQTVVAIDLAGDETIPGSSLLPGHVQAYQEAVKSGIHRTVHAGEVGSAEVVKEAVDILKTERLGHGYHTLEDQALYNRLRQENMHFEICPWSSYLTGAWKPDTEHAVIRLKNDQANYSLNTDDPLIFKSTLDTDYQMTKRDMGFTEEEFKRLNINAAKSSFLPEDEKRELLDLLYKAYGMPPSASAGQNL
Description: In vivo anti-inflammatory activity against adenosine deaminase (ADA) in the adjuvant arthritis model in rat (p.o.)

[9] = Solubility was determined; assay type: physicochemical
Mus musculus [10] = assay: Antitumor activity after administration (p.o.) in mice U937 cells at a dose of 32 mg/kg twice daily dosing (b.i.d.); assay type: functional, U-937; conditions: route oral
Mus musculus [11] = assay: Antitumor activity after administration (p.o.) in mice U937 cells at a dose of 10 mg/kg twice daily dosing (b.i.d.); assay type: functional, U-937; conditions: route oral
Canis familiaris = species on record: Canis familiaris; assay: (§2) In vitro clearance in dog liver microsomes; assay type: ADME, Canis lupus familiaris, Microsome
Mus musculus [12] = assay: Antitumor activity after administration (p.o.) in mice U937 cells at a dose of 32 mg/kg once daily dosing (u.i.d.); assay type: functional, U-937; conditions: route oral
[13] = Maximum plasma concentration in rat after po administration; assay type: ADME, organism-based; set-up: route oral
Mus musculus [14] = assay: Antitumor activity after administration (i.p.) in mice U937 cells at a dose of 0.25 mg/kg; conditions: route intraperitoneal
Mus musculus [15] = assay: Antitumor activity after administration (i.p.) in mice U937 cells at a dose of 2.5 mg/kg; conditions: route intraperitoneal
Mus musculus [16] = assay: Antitumor activity after administration (i.p.) in mice U937 cells at a dose of 0.025 mg/kg; assay type: functional, U-937; conditions: route intraperitoneal
Rattus norvegicus = species on record: Rattus norvegicus; assay: as §1; assay type: ADME, Microsome
[17] = as §2; assay type: ADME, Canis lupus familiaris, Microsome; conditions: read-out: Clearance

| AUC [2] | CLint scaled [3] | CLint scaled [4] | bioavailability [5] | half-life [6] | bioavailability [7] | Solubility [9] | Structure (SMILES) | further results |
| --- | --- | --- | --- | --- | --- | --- | --- | --- |
| – | – | – | – | – | – | – | Nc1ncnc2c1ncn2[C@@H]1O[C@H](CO)[C@@H](O)[C@@H]1O [VIDARABINE] | MST (Mus musculus [1]): 23.5 days |
| 2110 ng·h/mL | 4.5 mL/min/kg | 111 mL/min/kg | 44% | 1.66 h | 43% | 500 µg/mL (≈ 1460 µM) | C[C@H](O)[C@@H](CCc1cccc(Cl)c1Cl)n1cnc(C(N)=O)c1 | ED30 [8]: 1.6 mg/kg |
| 1370 ng·h/mL | 45 mL/min/kg | 307 mL/min/kg | 30% | 0.66 h | 38% | 481 µg/mL (≈ 1490 µM) | C[C@H](O)[C@@H](CCc1cccc2ccccc12)n1cnc(C(N)=O)c1 | – |
| – | – | – | – | – | – | – | C[C@H](O)[C@@H](CCOc1ccc2ccccc2c1)n1cnc(C(N)=O)c1.Cl | MST (Mus musculus [10]): 42.5 days; MST (Mus musculus [11]): 34 days; MST (Mus musculus [12]): 38 days |
| – | – | – | – | – | – | – | OC[C@H]1O[C@@H](n2cnc3c2N=CNC[C@H]3O)C[C@@H]1O [PENTOSTATIN] | MST (Mus musculus [14]): 34 days; MST (Mus musculus [15]): 42.5 days; MST (Mus musculus [16]): 28.5 days |
| < 100 ng·h/mL | 123 mL/min/kg | – | – | – | – | 4.2 µg/mL (≈ 8.41 µM) | Cn1c(CCC(=O)Nc2ccc3ccn(CC[C@H](CO)n4cnc(C(N)=O)c4)c3c2)nc2ccccc21 | Clearance (Rattus norvegicus): 35 mL/min/kg; CLint scaled [17]: 97 mL/min/kg; Cmax [13]: < 100 ng/mL |

| Structure (SMILES) | AUC [2] | CLint scaled [3] | CLint scaled [4] | bioavailability [5] | half-life [6] | bioavailability [7] | Solubility [9] | further results |
| --- | --- | --- | --- | --- | --- | --- | --- | --- |
| C[C@H](O)[C@@H](CCOc1ccc2ccccc2c1)n1cnc(C(N)=O)c1 | 1850 ng·h/mL | 3.8 mL/min/kg | 79 mL/min/kg | 42% | 1.12 h | 91% | 80 µg/mL (≈ 236 µM) | MST (Mus musculus [10]): 35.5 days; MST (Mus musculus [11]): 30 days; Clearance (Canis familiaris): 11 mL/min/kg; MST (Mus musculus [12]): 30 days; Cmax [13]: 970 ng/mL |
